Entries after “also recorded” stand apart in the source; their conditions may differ.
Key:
Format in all cases: cell-based, human
PM-SMC = experiment: Proliferation response by MTT assay; conditions: over 3 d; Ang II 1 μM, TGF-β1 5 ng/ml, serum 10%
Description: (§1) To confirm that we had generated origin-specific SMC subtypes, we used cytokines known to induce unique responses in aortic SMCs of distinct origins. Angiotensin II (Ang II) promotes medial hyperplasia in the ascending aorta (neuroectoderm derivative) but not the descending aorta (mesoderm derivative), TGF-β1 also encourages greater cell proliferation in SMCs of neuroectoderm origin compared to those of mesodermal origin. […] Cell cycle analysis confirmed that Ang II, TGF-β1 or serum each increased the proportion of NE-SMCs in S and G2-M phases compared to vehicle control after 24 h (FIGS. 25A and 25B).

NE-SMC = experiment: Proliferation response by MTT assay; conditions: over 3 d; Ang II 1 μM, TGF-β1 5 ng/ml, serum 10%
Description: as §1

LM-SMC = experiment: Proliferation response by MTT assay; conditions: over 3 d; Ang II 1 μM, TGF-β1 5 ng/ml, serum 10%
Description: as §1

NE-SMCs [1] = experiment: Cell cycle analysis; conditions: after 24 h, compared to vehicle control
Description: as §1

NE-SMCs [2] = experiment: Auto-induction of TGF-β2 and PDGFA (qRT-PCR, western blot)
Protocol: (§2) Total RNA was extracted with RNeasy Mini kit according to the manufacturer's instructions (QIAGEN). One microgram of RNA was reverse-transcribed with Fermentas Maxima First Strand cDNA Synthesis Kit. Quantitative polymerase chain reaction (QPCR) mixtures were prepared as described (Applied Biosystems SYBR Green PCR Master Mix). QPCR reactions were performed by Applied Biosystems 7500 Fast Real-Time PCR System with technical duplicates and normalized to Porphobilinogen Deaminase (PBGD) in the same run. Error bars on all QPCR graphs represent standard error of mean from three independent biological replicates.
To obtain protein extracts, cells were washed twice with ice-cold PBS. Ice-cold RIPA buffer was then added to the cells. Cells were scraped off the culture dishes and transferred into a centrifuge tube. Suspension was agitated by an orbital shaker for 15 minutes to lyse the cells at 4° C. Lysate was centrifuged at 14,000 g in a precooled centrifuge for 15 minutes and the supernatant was kept frozen at −80. Protein concentrations were determined using Thermo Scientific BCA Protein Assay Kit. 20 μg total protein was separated by SDS-PAGE and on stacking gel (30% acrylamide, 1M Tris, 10% SDS, 10% APS, TEMED) then transferred to a nitrocellulose membrane. […]

derived SMCs [3] = experiment: Calcium flux measurement with Fluo-4; conditions: carbachol 100 μM
Protocol: (§3) On culture dishes, SMCs were loaded with the calcium-sensitive fluorophore, Fluo-4 AM (2.5 μM; Molecular Probes). Cells were typsinised into single-cell suspension for calcium flux measurement using the CyAn ADP flow cytometer (Packman Coulter). Contraction was induced by treating the cells with carbachol (100 μM). Fluo-4 was excited by the 488 nm laser and the fluorescence emission was measured by the FL1 channel. Cells were analysed just before addition of carbachol, 1 minute and 3 minutes after addition. On the other hand, contraction images of adherent SMCs were acquired by an inverted microscope (Olympus) before and after 10 minutes of carbachol treatment.
Changes of calcium signalling in cells are indicative of their contractile properties in response to carbachol, a potent vasoconstrictor. The origin-specific SMCs were loaded with fluo-4, a calcium-sensitive dye, prior to the addition of carbachol (FIG. 13) and fluorescent emission from the fluo-4 measured over time (T) after the addition of carbachol to the origin-specific SMCs. Hela cells were used as negative control.
To assess SMC contractile potential, we initially performed immunostaining for vinculin and phalloidin staining for actin filaments, Well-developed focal adhesion complexes were detected in all three SMC subtypes. The cells were then preloaded with a calcium-sensitive dye, Fluo-4. Carbachol (100 μM) stimulated an increase in Fluo-4 fluorescence intensity in the derived SMCs within 1 min of treatment (FIG. 14), indicating increased intracellular calcium flux. After 2 min of treatment, Fluo-4 intensity decreased, approaching original basal levels by 5 min.

derived SMCs [4] = experiment: Contraction study; conditions: for Percentage of all derived SMCs that contracted: upon carbachol or angiotensin II treatment
Protocol: as §3
Over 50% and 20% of all derived SMCs contracted upon carbachol and angiotensin II treatments, respectively.

[5] = system: hPSC-derived SMCs and rat aortic SMCs; experiment: MMP and TIMP expression after IL-1β treatment (qRT-PCR); conditions: IL-1β 10 ng/ml
Protocol: as §2
Only NE-SMCs proliferated in response to TGF-β1 (FIGS. 24, 25). TGF-β1 may have enhanced cell proliferation by autocrine production of TGF-β2 and PDGFA. We investigated whether TGF-β1 stimulated greater auto-induction of TGF-β2 and PDGFA in SMCs of a neuroectoderm origin. […] Correspondingly, elevated TGFB2 and PDGFA protein levels were found in NE-SMC lysates after TGF-β1 treatment (FIG. 22). Taken together, the data on requirement for MKL2 and their unique proliferative and secretory responses validate the hypothesis that our different SMC subtypes are analogous to the distinct lineage-dependent SMC populations documented in vivo. […]

hESCs = experiment: QPCR analysis of mesoderm subtype markers in differentiating hESCs; conditions: for Expression of the lateral plate marker KDR: in the presence of activin A (10 ng/ml), BMP4 0 to 100 ng/ml
Protocol: Human embryonic stem cells (hESCs) were cultured in chemically defined medium (CDM) with activin A (10 ng/mL) and FGF2 (20 ng/mL) to maintain pluripotency (Vallier et al, 2005).
An efficient 36 h protocol to differentiate hESCs into early mesoderm was named FlyB (F, FGF2 at 20 ng/ml; Ly, LY294002 at 10 μM and B, BMP4 at 10 ng/ml). Differentiation of paraxial mesoderm can be induced by removal of BMP4 and blockage of the PI3K pathway (1.5 day FLyB+3.5 days FLy, where F is FGF2 at 5-25 ng/ml and Ly is LY294002 at 5-10 μM). Differentiation of lateral plate mesoderm can be induced by increasing the levels of BMP4 and removal of Ly (1.5 day FLyB+3.5 days FB, where F is FGF2 at 5-25 ng/ml and B is BMP4 at […]).
as §2
The protocol used is shown schematically in FIG. 1A, depicting the growth factors used and the duration of the treatment. For the first 36 hours, growth factors used were FLyB10 [FGF2 (20 ng/mL), BMP4 (10 ng/mL) and LY294002 (10 μM)] to induce primitive streak). The subsequent 3.5 days of differentiation specifies mesoderm subtypes. FLy [FGF2 (20 ng/mL) and LY294002 (10 μM)] for somitic mesoderm; FB50 [FGF2 (20 ng/mL) and BMP4 (50 ng/mL)] for lateral mesoderm.
QPCR analysis was performed for Brachyury, MEOX1 and FLK1 in hESCs grown according to the protocol depicted in FIG. 1A and harvested at day 5. The BMP4 gradient tested ranged from 0 ng/mL (Nog) to 100 ng/mL (B100). The bars in FIG. 2 represent the absence or presence of activin A (A) added at 10 ng/ml respectively. […] Therefore, absence of activin A promoted mesoderm formation.
We then evaluated the effect of 10 μM LY294002 (Ly) on mesoderm subtype specification. QPCR analysis of LMO2, CD31, PECAM1, NKX2.5, ISL1, MEOX1, TBX6, TCF15 and PAX1 was performed in hESCs grown for 36 h in FLyB10 and then for 3.5 additional days in F or FB50, with (RH bars) or without (LH bars) […]. […] On the other hand, the presence of Ly promoted the expressions of somitic markers—MEOX1 and TBX6. […] Again, the presence of 50 ng/ml BMP4 (B50) inhibited the expression of all paraxial markers and promoted the expression of lateral plate markers.

[6] = 50 ng/ml BMP4 (B50), 36 h FLyB10 then 3.5 days

In the case of “TGF-β1: homodimeric polypeptide which regulates proliferation and differentiation”, the Proliferation (PM-SMC) is reported as “did not”, the Proliferation (NE-SMC) is reported as “proliferated” and the Proliferation (LM-SMC) is reported as “did not”. For the same molecule, the “Proportion of cells in S and G2-M phases” value (NE-SMCs [1]) was “increased”, the “TGFB2 and PDGFA expression” value (NE-SMCs [2]; 10 h of TGF-β1 (5 ng/ml), compared with vehicle control, only in NE-SMCs) was “significantly upregulated” and the “TGFB2 and PDGFA protein levels in lysates” value (NE-SMCs [2]; after TGF-β1 treatment, western blot) was “elevated”.

With `C[N+](C)(C)CCOC(N)=O` [carbachol] the “Fluo-4 fluorescence intensity (intracellular calcium flux)” value (derived SMCs [3]) was “transient increase”, the “Time to increase in Fluo-4 fluorescence intensity” value (derived SMCs [3]) was ≤ 1 min and the “Fluo-4 fluorescence intensity (intracellular calcium flux)” value (derived SMCs [3]; listed as Carbachol) was “increase”. For the same molecule, the “Change of cell surface area in contracting cells” value (derived SMCs [4]; 10 min of carbachol treatment, n=20) was 10-20% and the “Percentage of all derived SMCs that contracted” value (derived SMCs [4]) was “Over 50%”.

For IL-1β: an atherogenic cytokine, the “Induction of Mmp9 relative to control in rat SMCs versus hPSC-derived SMCs” value ([5]; 6 h) was ~100 fold and the “MMP9 and TIMP1 expression levels” value ([5]; SMC subtypes and rat SMCs of distinct origins) was “differentially activated”.

For `O=c1cc(N2CCOCC2)oc2c(-c3ccccc3)cccc12` [LY294002, 2-morpholin-4-yl-8-phenylchromen-4-one, reference compound], the “Expression of lateral plate markers LMO2, PECAM1, NKX2-5, ISL1” value (hESCs; 10 μM LY294002 in F or FB50, compared to no LY294002) was “had no effect or inhibited; also recorded: significantly downregulated” and the “Expression of paraxial markers MEOX1, TBX6, TCF15, PAX1” value (hESCs; 10 μM LY294002 in the presence of 20 ng/ml FGF2 (F) alone, versus no LY294002) was “promote paraxial mesoderm patterning; also recorded: significantly promoted”.

With “angiotensin II: vasoconstrictor; promotes medial hyperplasia in the ascending aorta (DRVYIHPF; Angiotensin-2; UniProt P01019 25-32, looked up) [reference compound]” the Proliferation (PM-SMC) was “did not”, the Proliferation (NE-SMC) was “proliferated” and the Proliferation (LM-SMC) was “did not”. For the same molecule, the “Proportion of cells in S and G2-M phases” value (NE-SMCs [1]) was “increased” and the “Percentage of all derived SMCs that contracted” value (derived SMCs [4]) was > 20%.

B1: Noggin: a BMP antagonist (protein, UniProt Q13253 28-232, looked up)
Noggin: QHYLHIRPAPSDNLPLVDLIEHPDPIFDPKEKDLNETLLRSLLGGHYDPGFMATSPPEDRPGGGGGAAGGAEDLAELDQLLRQRPSGAMPSEIKGLEFSEGLAQGKKQRLSKKLRRKLQMWLWSQTFCPVLYAWNDLGSRFWPRYVKVGSCFSKRSCSVPEGMVCKPSKSVHLTVLRWRCQRRGGQRCGWIPIQYPIISECKCSC
With B1 the “Expression of the lateral plate marker KDR” value (hESCs; day 5) was “same effect as B0”.

B2: activin A: dimeric polypeptide stimulating the Activin/Nodal pathway (protein, UniProt P08476 311-426, looked up)
Inhibin beta A chain: GLECDGKVNICCKKQFFVSFKDIGWNDWIIAPSGYHANYCEGECPSHIAGTSGSSLSFHSTVINHYRMRGHSPFANLKSCCVPTKLRPMSMLYYDDGQNIIKKDIQNMIVEECGCS
modifications: Inhibin beta A chain
For B2, the “Expression of Brachyury (T), MEOX1 and FLK1” value (hESCs; absence versus presence of activin A at 10 ng/ml, day 5) was “upregulated” and the “Requirement for mesoderm patterning” value (hESCs; hESCs harvested at day 5) was “not required”.

B3: BMP4: Bone Morphogenic Protein 4, TGFβ ligand stimulating SMAD1, SMAD5 and SMAD9 signalling (protein, UniProt P12644 293-408, looked up)
Bone morphogenetic protein 4: SPKHHSQRARKKNKNCRRHSLYVDFSDVGWNDWIVAPPGYQAFYCHGDCPFPLADHLNSTNHAIVQTLVNSVNSSIPKACCVPTELSAISMLYLDEYDKVVLKNYQEMVVEGCGCR
In the case of B3, the “Expression of all paraxial markers” value (hESCs; [6]) is reported as “inhibited”, the “Expression of lateral plate markers” value (hESCs; [6]) is reported as “promoted” and the “Expression of FLK1” value (hESCs; hESCs harvested at day 5, BMP4 0 to 100 ng/mL) is reported as “increased”. The “Expression of the lateral plate marker KDR” value (hESCs; day 5) was “promote the expression”.

From patent publication US9238795B2, “Populations of smooth muscle cells of specific embryonic lineages” (Cambridge Enterprise Limited, priority 2011, dated 2016)
